According to US20160287564A1, “METHODS OF ADMINISTERING GLUTAMINASE INHIBITORS” (Calithera Biosciences, Inc., priority 2015, published 2016):
Entries after “also recorded” stand apart in the source; their conditions may differ.

Assays:
glutaminase = assay: Glutaminase activity in peripheral blood mononuclear cells (PBMCs) of treated patients; type: in vivo, human; conditions: PBMCs from three patients treated with 600, 800 and 1000 mg three times per day; 10-58% leukemic blast counts
Experimental: The compound was administered three times per day (“TID”) at doses ranging from 100 mg per dose to 1000 mg per dose (i.e., 300 mg to 3000 mg total compound per day).

[1] = Pharmacokinetics in cancer patients, dosing schedule of FIG. 6; type: in vivo, human
Experimental: FIG. 6 is a table that describes the dosing regimen for CB-839.
CB-839 was administered to cancer patients according to the dosing schedule in FIG. 6. The half-life of CB-839 is approximately 4 hours.

acute leukemia = assay: Clinical outcomes in efficacy-evaluable subjects with acute leukemia
Experimental: (§1) The compound of formula III (CB-839) was administered, orally, to fifteen human subjects with acute leukemia for 22 days. The compound was administered three times per day (“TID”) at doses ranging from 100 mg per dose to 1000 mg per dose (i.e., 300 mg to 3000 mg total compound per day). Plasma levels of the compound were monitored on days 1, 15, and 22. Subjects received the compound in a fasted state on days 1 and 15 (e.g., without a meal as defined herein) and in a fed state on day 22 (e.g., with a meal as defined herein). Administration of the compound in a fasted state consisted of oral administration of a first dose 1 hour before breakfast, oral administration of a second dose at 3 PM, and oral administration of a third dose prior to bedtime.
(§2) Each subject from Example 1 who remained enrolled in the trial were administered 600 mg of the compound of formula III orally, twice a day (“BID”), with food, each day after day 22 of the trial (i.e., 1200 mg of the compound per day).

[2] = Safety: dose-limiting toxicity and treatment-related adverse events in Examples 1 and 2
Experimental: as §1, §2

[3] = Plasma pharmacokinetics after oral TID/BID dosing, fasted or fed, in human subjects with acute leukemia; conditions: 600 mg twice a day with food
Experimental: The compound was administered three times per day (“TID”) at doses ranging from 100 mg per dose to 1000 mg per dose (i.e., 300 mg to 3000 mg total compound per day). Plasma levels of the compound were monitored on days 1, 15, and 22. Subjects received the compound in a fasted state on days 1 and 15 (e.g., without a meal as defined herein) and in a fed state on day 22 (e.g., with a meal as defined herein). Administration of the compound in a fasted state consisted of oral administration of a first dose 1 hour before breakfast, oral administration of a second dose at 3 PM, and oral administration of a third dose prior to bedtime.
Each subject from Example 1 who remained enrolled in the trial were administered 600 mg of the compound of formula III orally, twice a day (“BID”), with food, each day after day 22 of the trial (i.e., 1200 mg of the compound per day). […] Pharmacokinetics data was compared for subjects receiving 600 mg of the compound three times per day in a fasted state (i.e., 1800 mg of the compound per day, without meals as defined herein) and subjects receiving 600 mg of the compound two times per day in a fed state (i.e., 1200 mg of the compound per day, with meals as defined herein).

[4] = BID Fed dosing regimen, FIG. 6-8
[5] = occurred in greater than 10% of subjects, fifteen subjects

PK variability with BID Fed dosing regimen [1, 4]: PK variability is reduced
exposure versus dose ([1]; cancer patients, dosing schedule of FIG. 6): Exposure generally increases with dose
half-life ([1]; human, in vivo, oral, cancer patients): ~4 h
time in which Cmax was reached [3]: 2 to 6 h
plasma levels of the compound ([3]; all subjects): exceeded 450 nM
Compound: O=C(Cc1cccc(OC(F)(F)F)c1)Nc1ccc(CCCCc2nnc(NC(=O)Cc3ccccn3)s2)nn1 [CB-839]
inhibition of glutaminase activity (glutaminase): > 94%
exposure with BID Fed dosing regimen [1, 4]: consistent exposure; also recorded: target CB-839 concentrations are maintained
complete response (acute leukemia; after 6 cycles of dosing): One subject achieved a complete response in the bone marrow with incomplete recovery of peripheral counts
stable disease for 4-10 cycles (acute leukemia; of 15 efficacy-evaluable subjects across all dose levels, 1 cycle=21 days): 5 (33%) subjects
average time remaining on the study drug (acute leukemia; subjects with stable disease): 134 days
dose-limiting toxicity ([2]; Examples 1 and 2, all dose levels): No dose-limiting toxicity was identified
increased bilirubin levels (treatment-related adverse event) [2, 5]: 2 subjects
increased transaminase levels (treatment-related adverse event) [2, 5]: 4 subjects
